Target: Rho-associated protein kinase 2 (Homo sapiens, UniProt O75116)
Assay: In Vitro Assay: The effectiveness of compounds of the present invention as ROCK inhibitors can be determined in a 30 μL assay containing 20 mM HEPES, pH 7.5, 20 mM MgCl2, 0.015% Brij-35, 4 mM DTT, 5 μM ATP and 1.5 μM peptide substrate (FITC-AHA-AKRRRLSSLRA-OH) (SEQ ID No. 1). Compounds were dissolved in DMSO so that the final concentration of DMSO was <2%, and the reaction was initiated with Rho kinase variants. After incubation, the reaction was terminated by the addition of EDTA and the phosphorylated and non-phosphorylated peptides separated using a LABCHIP® 3000 Reader (Caliper Life Sciences). […] Compounds were tested in dose-response format, and the inhibition of kinase activity was calculated at each concentration of compound. The inhibition data were fit using a curve-fitting program to determine the IC50; i.e., the concentration of compound required to inhibit 50% of kinase activity.

Sequence of Rho-associated protein kinase 2 (O75116 whole entry, looked up, change not shown): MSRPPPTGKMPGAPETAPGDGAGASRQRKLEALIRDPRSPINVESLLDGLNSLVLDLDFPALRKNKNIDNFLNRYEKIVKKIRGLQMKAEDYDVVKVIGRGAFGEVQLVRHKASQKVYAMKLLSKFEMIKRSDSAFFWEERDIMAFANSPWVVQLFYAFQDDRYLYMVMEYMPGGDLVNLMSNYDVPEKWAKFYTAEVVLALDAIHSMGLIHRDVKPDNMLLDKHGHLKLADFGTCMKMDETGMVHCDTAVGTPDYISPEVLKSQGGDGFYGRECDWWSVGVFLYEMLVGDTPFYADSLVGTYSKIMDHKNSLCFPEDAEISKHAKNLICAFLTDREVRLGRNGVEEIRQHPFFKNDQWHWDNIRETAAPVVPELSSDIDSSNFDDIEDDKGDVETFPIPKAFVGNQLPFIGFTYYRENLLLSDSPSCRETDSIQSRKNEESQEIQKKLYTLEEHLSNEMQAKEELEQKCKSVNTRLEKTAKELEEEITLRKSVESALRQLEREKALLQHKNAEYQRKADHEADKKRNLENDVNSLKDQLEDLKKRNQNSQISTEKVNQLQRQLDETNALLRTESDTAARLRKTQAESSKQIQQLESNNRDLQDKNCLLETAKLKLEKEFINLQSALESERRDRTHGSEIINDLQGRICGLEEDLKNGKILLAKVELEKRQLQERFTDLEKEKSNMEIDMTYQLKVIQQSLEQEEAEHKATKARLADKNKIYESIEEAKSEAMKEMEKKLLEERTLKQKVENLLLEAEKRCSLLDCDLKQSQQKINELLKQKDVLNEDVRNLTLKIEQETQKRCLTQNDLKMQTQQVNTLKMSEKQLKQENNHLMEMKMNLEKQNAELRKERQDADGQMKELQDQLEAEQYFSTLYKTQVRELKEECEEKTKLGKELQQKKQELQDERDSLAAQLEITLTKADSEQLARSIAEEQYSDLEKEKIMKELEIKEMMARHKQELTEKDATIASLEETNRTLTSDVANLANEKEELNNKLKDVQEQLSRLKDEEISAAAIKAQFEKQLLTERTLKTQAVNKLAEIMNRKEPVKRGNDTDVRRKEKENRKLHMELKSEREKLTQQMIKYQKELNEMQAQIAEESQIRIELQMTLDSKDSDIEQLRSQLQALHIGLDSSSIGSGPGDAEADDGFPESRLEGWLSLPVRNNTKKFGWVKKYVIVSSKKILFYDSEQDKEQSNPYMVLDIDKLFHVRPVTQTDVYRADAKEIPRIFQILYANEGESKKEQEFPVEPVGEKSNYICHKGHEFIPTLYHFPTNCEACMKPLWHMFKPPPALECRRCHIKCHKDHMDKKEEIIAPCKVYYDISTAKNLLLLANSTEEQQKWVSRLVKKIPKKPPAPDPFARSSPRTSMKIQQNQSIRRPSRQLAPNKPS

- IC50: 0.087 µM
Structure (SMILES): Cc1sc(C(=O)Cc2ccc(Oc3ncccc3C(N)=O)cc2)nc1-c1ccccc1

— ChEMBL document CHEMBL5729067, “Phenylacetamides as inhibitors of rock” (2022)
